Source: patent publication US20250163047A1, “HETEROCYCLIC COMPOUNDS, COMPOSITIONS THEREOF, AND METHODS OF TREATMENT THEREWITH” (BeiGene, Ltd., priority 2022, published 2025)

Legend:
Cbl-b (aa36-427) = biological target: T1, Cbl-b (aa36-427) (Homo sapiens, UniProt Q13191); experiment: Co-expressed Cbl-b with BirA biochemical assay (CBLB/E2-Ub binding, HTRF); details: 0.6 nM Cbl-b co-expressed with BirA, HTRF; read-out: co-express CBLB/E2-Ub-binding assay IC50
T1 construct: Cbl-b (aa36-427, in-house); made in house
From the text: (§1) The assay in the absence of a Cbl-b/Cbl inhibitor, where phosphorylation of Cbl-b/Cbl by the Src kinase allows UbcH5B-Ub to bind to Cbl-b/Cbl and brings the Bodipy-Fluorescein tagged ubiquitin in proximity to the streptavidin-terbium bound to the N-terminal biotinylated Avi-tagged Cbl-b/Cbl. […] The lack of a FRET signal indicates Cbl-b/Cbl is inhibited by the Cbl-b/Cbl inhibitor.

Cbl (aa49-434) = biological target: T2, Cbl (aa49-434) (Homo sapiens, UniProt P22681); experiment: Co-expressed Cbl with BirA biochemical assay (CBL/E2-Ub binding, HTRF); details: 0.6 nM Cbl co-expressed with BirA, read-out: co-express CBL/E2-Ub-binding assay IC50
T2 construct: Cbl (aa49-434, in-house); made in house
T2 sequence (P22681 49-434): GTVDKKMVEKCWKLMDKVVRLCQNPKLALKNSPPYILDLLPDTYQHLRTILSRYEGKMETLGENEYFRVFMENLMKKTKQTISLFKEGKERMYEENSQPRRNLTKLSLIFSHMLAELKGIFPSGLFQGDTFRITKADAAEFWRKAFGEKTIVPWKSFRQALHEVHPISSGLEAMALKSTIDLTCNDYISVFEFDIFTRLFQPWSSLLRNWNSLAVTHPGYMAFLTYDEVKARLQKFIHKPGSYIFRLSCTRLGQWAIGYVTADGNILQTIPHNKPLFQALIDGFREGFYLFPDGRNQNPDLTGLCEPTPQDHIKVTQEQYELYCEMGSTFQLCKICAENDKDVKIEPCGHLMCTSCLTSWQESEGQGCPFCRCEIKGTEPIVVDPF
From the text: as §1

T1 sequence (Q13191 36-427): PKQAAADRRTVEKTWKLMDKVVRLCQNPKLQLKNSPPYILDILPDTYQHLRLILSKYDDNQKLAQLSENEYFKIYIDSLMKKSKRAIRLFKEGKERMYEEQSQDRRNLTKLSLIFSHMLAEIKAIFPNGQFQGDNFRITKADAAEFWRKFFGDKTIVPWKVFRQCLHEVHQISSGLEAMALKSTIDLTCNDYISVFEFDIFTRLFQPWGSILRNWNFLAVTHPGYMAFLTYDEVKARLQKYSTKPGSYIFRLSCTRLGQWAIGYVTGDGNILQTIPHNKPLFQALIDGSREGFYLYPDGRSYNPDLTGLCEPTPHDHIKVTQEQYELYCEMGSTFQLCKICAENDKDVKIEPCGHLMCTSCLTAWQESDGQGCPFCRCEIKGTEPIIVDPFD

IC50 (Cbl-b (aa36-427)) [nM] | IC50 (Cbl (aa49-434)) [nM] | SMILES
3.9 | 17 | Cn1cnnc1[C@]1(c2cccc(NC(=O)c3cc(CNC4(C)CCC4)c4c(n3)C3(CC3)CN4)c2)C[C@H](CC#N)C1 [Compound C31, N-(3-((1s, 3s)-3-(cyanomethyl)-1-(4-methyl-4H-1,2,4-triazol-3-yl)cyclobutyl)phenyl)-7′-(((1-methylcyclobutyl)amino)methyl)-1′,2′-dihydrospiro[cyclopropane-1,3′-pyrrolo[3,2-b]pyridine]-5′-carboxamide]
2 | 5.9 | Cn1cnnc1[C@]1(c2cccc(NC(=O)c3cc(CNCC4CCC4)c4c(n3)C(C)(C)CN4)c2)C[C@H](C)C1 [Compound C49, 7-(((cyclobutylmethyl)amino)methyl)-3,3-dimethyl-N-(3-((1s, 3s)-3-methyl-1-(4-methyl-4H-1,2,4-triazol-3-yl)cyclobutyl)phenyl)-2,3-dihydro-1H-pyrrolo[3,2-b]pyridine-5-carboxamide]
1.3 | 6.8 | Cn1cnnc1[C@]1(c2cccc(NC(=O)c3cc(CNC4CCCCCC4)c4c(n3)C(C)(C)CC4)c2)C[C@H](CC#N)C1 [Compound C54, N-(3-((1s, 3s)-3-(cyanomethyl)-1-(4-methyl-4H-1,2,4-triazol-3-yl)cyclobutyl)phenyl)-4-((cycloheptylamino)methyl)-7,7-dimethyl-6,7-dihydro-5H-cyclopenta[b]pyridine-2-carboxamide]
1.6 | 10.4 | Cn1cnnc1[C@]1(c2cccc(NC(=O)c3cc(CNC4(C)CC4)c4c(n3)C(C)(C)CC4)c2)C[C@H](CC#N)C1 [Compound C24, N-(3-((1s, 3s)-3-(cyanomethyl)-1-(4-methyl-4H-1,2,4-triazol-3-yl)cyclobutyl)phenyl)-7,7-dimethyl-4(((1methylcyclopropyl)amino)methyl)-6,7-dihydro-5H-cyclopenta[b]pyridine-2-carboxamide]
1.5 | 1.1 | C[C@H]1CCCN(Cc2cc(C(=O)Nc3cccc([C@]4(Cc5nncn5C)C[C@@H](C#N)C4)c3)nc3c2NCC32CC2)C1 [Compound C17, N-(3-((1r,3S)-3-cyano-1-((4-methyl-4H-1,2,4-triazol-3-yl)methyl)cyclobutyl)phenyl)-7′-(((S)-3-methylpiperidin-1-yl)methyl)-1′,2′-dihydrospiro[cyclopropane-1,3′-pyrrolo[3,2-b]pyridine]-5′-carboxamide]

Continued, compound first:

SMILES | IC50 (Cbl-b (aa36-427)) [nM] | IC50 (Cbl (aa49-434)) [nM]
Cn1cnnc1[C@]1(c2cccc(NC(=O)c3cc(CNC4(C)CC4)cn4c(Cl)cnc34)c2)C[C@H](CC#N)C1 [Compound A41, 3-chloro-N-(3-((1s, 3s)-3-(cyanomethyl)-1-(4-methyl-4H-1,2,4-triazol-3-yl)cyclobutyl)phenyl)-6-(((1-methylcyclopropyl)amino)methyl)imidazo[1,2-a]pyridine-8-carboxamide] | 0.2 | 0.9
Cn1cnnc1[C@]1(c2cccc(NC(=O)c3cc(CNC4(C)CC4)cn4ccnc34)c2)C[C@H](CC#N)C1 [Compound A25, N-(3-((1s, 3s)-3-(cyanomethyl)-1-(4-methyl-4H-1,2,4-triazol-3-yl)cyclobutyl)phenyl)-6-(((1-methylcyclopropyl)amino)methyl)imidazo[1,2-a]pyridine-8-carboxamide] | 1.5 | 10.5
C[C@H](NCc1cc(C(=O)Nc2cccc([C@]3(c4nncn4C)C[C@@H](CC#N)C3)c2)c2nccn2c1)C1CC1 [Compound A27, N-(3-((1s,3R)-3-(cyanomethyl)-1-(4-methyl-4H-1,2,4-triazol-3-yl)cyclobutyl)phenyl)-6-((((S)-1-cyclopropylethyl)amino)methyl)imidazo[1,2-a]pyridine-8-carboxamide] | 1.4 | 8
Cn1cnnc1CC1(c2cccc(NC(=O)c3cc(CNC4CCCCC4)cn4ccnc34)c2)COC1 [Compound A9, 6-((cyclohexylamino)methyl)-N-(3-(3-((4-methyl-4H-1,2,4-triazol-3-yl)methyl)oxetan-3-yl)phenyl)imidazo[1,2-a]pyridine-8-carboxamide] | 12.8 | 24.3
C[C@H](NCc1cc(C(=O)Nc2cncc([C@]3(c4nncn4C)C[C@@H](C)C3)c2)nc2cc[nH]c12)C1CCC1 [Compound B43, 7-({[(1S)-1-cyclobutylethyl]amino}methyl)-N-{5-[(1r, 3s)-3-methyl-1-(4-methyl-1,2,4-triazol-3-yl)cyclobutyl]pyridin-3-yl}-1H-pyrrolo[3,2-b]pyridine-5-carboxamide] | 0.6 | 0.6
Cn1cnnc1[C@]1(c2cccc(NC(=O)c3cc(CNCC4(C)CCCC4)cn4c(Cl)cnc34)c2)C[C@H](CC#N)C1 [Compound A28, 3-chloro-N-(3-((1s, 3s)-3-(cyanomethyl)-1-(4-methyl-4H-1,2,4-triazol-3-yl)cyclobutyl)phenyl)-6-((((1-methylcyclopentyl)methyl)amino)methyl)imidazo[1,2-a]pyridine-8-carboxamide] | 1 | 2.4
CC(C)CNCc1cc(C(=O)Nc2cncc([C@]3(c4nncn4C)C[C@@H](C)C3)c2)c2ncc(F)n2c1 [Compound A79, 3-fluoro-6-((isobutylamino)methyl)-N-(5-((1s, 3s)-3-methyl-1-(4-methyl-4H-1,2,4-triazol-3-yl)cyclobutyl)pyridin-3-yl)imidazo[1,2-a]pyridine-8-carboxamide] | 0.73 | 1.4
C[C@H]1CCCN(Cc2cc(C(=O)Nc3cccc([C@]4(c5nncn5C)C[C@@H](CC#N)C4)c3)n3ncc(F)c3c2)C1 [Compound A20, 3-fluoro-5-{[(3S)-3-methylpiperidin-1-yl]methyl}-N-{3-[(1s, 3s)-3-(cyanomethyl)-1-(4-methyl-1,2,4-triazol-3-yl)cyclobutyl]phenyl}pyrazolo[1,5-a]pyridine-7-carboxamide] | 3 | 26.5
Cn1cnnc1[C@]1(c2cccc(NC(=O)c3cc(CNC4(C)CCC4)cn4c(Cl)cnc34)c2)C[C@H](C)C1 [Compound A66, 3-chloro-N-(3-((1s, 3s)-3-methyl-1-(4-methyl-4H-1,2,4-triazol-3-yl)cyclobutyl)phenyl)-6-(((1-methylcyclobutyl)amino)methyl)imidazo[1,2-a]pyridine-8-carboxamide] | 1.1 | 3.4
Cn1cnnc1CC1(c2cccc(NC(=O)c3cc(CN4CCCC(C(F)(F)F)C4)c4[nH]ccc4n3)c2)COC1 (centres unmarked) [Compound B9, N-(3-(3-((4-methyl-4H-1,2,4-triazol-3-yl)methyl)oxetan-3-yl)phenyl)-7-((3-(trifluoromethyl)piperidin-1-yl)methyl)-1H-pyrrolo[3,2-b]pyridine-5-carboxamide] | 25.9 | 42.9
C[C@@H]1CN(Cc2cc(C(=O)Nc3cccc([C@]4(Cc5nncn5C)C[C@@H](C#N)C4)c3)c3nccn3c2)CC[C@@H]1F [Compound A48, N-(3-((1r,3R)-3-cyano-1-((4-methyl-4H-1,2,4-triazol-3-yl)methyl)cyclobutyl)phenyl)-6-(((3R,4S)-4-fluoro-3-methylpiperidin-1-yl)methyl)imidazo[1,2-a]pyridine-8-carboxamide] | 0.8 | 2.7
